# Data published in US20180085362A1, “COMBINATION OF PHOSPHATIDYLINOSITOL-3-KINASE (PI3K) INHIBITOR AND A MTOR INHIBITOR” (Novartis AG, priority 2011, published 2018).
# Experiments:
# [1] = Toxicity (body weight, deaths) in DU145 xenograft study; format: in vivo, nude mice (nu/nu); set-up: key to Mean BW Nadir: — indicates no decrease in mean body weight is observed; conditions: for Deaths (TR/NTR): ten mice
# Protocol: Paclitaxel is administered via bolus tail veil injections (i.v.) once daily on alternate days for five doses (qod×5). The dosing volume, 10 mL/kg ( )0.2 mL/20 g mouse), is scaled to the weight to each animal as determined on the day of dosing, except on weekends, when the Friday BWs are carried forward.
# 11 groups of nude mice (n=10 per group) are treated as follows: Group 1 mice receives Vehicle 1 and Vehicle 2, and served as controls for all analyses. […] Groups 5-7 receives monotherapies with 2.5, 5, and 10 mg/kg RAD001, respectively. […] Group 11 receives 25 mg/kg paclitaxel.
# Animals are weighed on Days 1-5, and on each treatment day (except weekend days) until the end of the study. Acceptable toxicity for the maximum tolerated dose is defined as a group mean BW loss of less than 15% during the test, and not more than one treatment-related (TR) death among ten animals. Any animal with BW losses exceeding 20% for one measurement, is to be euthanized and classified as a TR death, unless it is the first death in the group. Non-treatment-related (NTR) deaths are to be categorized as NTRa (due to accident or error), NTRu (due to unknown causes), or NTRm (necropsy-confirmed tumor dissemination by invasion and/or metastasis).
# [2] = tested on: DU145 human prostate carcinoma; assay: Tumor growth inhibition, DU145 human prostate carcinoma nude mouse xenograft model; conditions: for Mean volume Change: Day 1 to Day 21; for T/C: Day 21
# [3] = tested on: T47-D human breast cancer cell line; assay: CellTiter-Glo cell proliferation assay, dose matrix, T47-D; format: cell-based; conditions: 72 hrs; for Amax (maximum fraction of inhibition): fraction growth inhibition compare to DMSO control, everolimus 1 nM-27 nM, Compound I 4 nM-3 μM
# Protocol: The human breast cancer cell line T47-D is purchased from American Type Cell Collection. The T47-D human breast cancer cell line includes PIK3CA mutation.
# (§1) Cell viability is determined by measuring cellular ATP content using the CellTiter-Glo® Luminescent Cell Viability Assay (Promega #G7573) according to manufacturer's protocol.
# (§2) Single agent dose responding curves, IC50, IC90, and the Synergy are all analyzed using Chalice software (CombinatoRx, Cambridge Mass.). Synergy is calculated by comparing a combination's response to those of its single agents, against the drug-with-itself dose-additive reference model. Deviations from dose additivity can be assessed visually on an Isobologram or numerically with a Combination Index. Excess inhibition compare to additivity can also be plotted as a full dose-matrix chart to capture where the synergies occur. To quantify the overall strength of combination effects, a volume score VHSA=ΣX,Y InfX InfY (Idata−IHSA) is also calculated between the data and the highest-single-agent surface, normalized for single agent dilution factors fX,fY.
# The experiment setup is identical to the experiment procedure described above for the SKBR-3 model (FIG. 15).
# [4] = tested on: ZR-75-1 human breast cancer cell line; assay: CellTiter-Glo cell proliferation assay, dose matrix, ZR-75-1; format: cell-based; conditions: for Amax (maximum fraction of inhibition): ZR-75-1, 72 hrs, fraction growth inhibition compare to DMSO control, everolimus 1 nM-27 nM, Compound I 4 nM-3 μM
# [5] = tested on: SKBR-3 human breast cancer cell line; assay: CellTiter-Glo cell proliferation assay, dose matrix, SKBR-3; format: cell-based; conditions: SKBR-3, 72 hrs; for Amax, the maximum fraction of inhibition: fraction growth inhibition compare to DMSO control, everolimus 1 nM-27 nM, Compound I 4 nM-3 μM
# Protocol: The human breast cancer cell line SKBR-3 is purchased from American Type Cell Collection. The SKBR-3 human breast cancer cell line is HER2 amplified.
# Single agent dose responding curves, IC50, IC90, and the Synergy are all analyzed using Chalice software (CombinatoRx, Cambridge Mass.). Synergy is calculated by comparing a combination's response to those of its single agents, against the drug-with-itself dose-additive reference model. Deviations from dose additivity can be assessed visually on an Isobologram or numerically with a Combination Index. Excess inhibition compare to additivity can also be plotted as a full dose-matrix chart to capture where the synergies occur. To quantify the overall strength of combination effects, a volume score VHSA=ΣX,Y, InfX InfY (Idata−IHSA) is also calculated between the data and the highest-single-agent surface, normalized for single agent dilution factors fX,fY.
# The cells are plated at 3000 cells per well in 384 well plates in triplicates, and treated with compound for 72 hrs before the measurement (FIG. 13).
# [6] = tested on: BT-474 human breast cancer cell line; assay: CellTiter-Glo cell proliferation assay, dose matrix, BT-474; format: cell-based; conditions: BT-474, 72 hrs; for Amax (maximum fraction of inhibition): fraction growth inhibition compare to DMSO control, everolimus 1 nM-27 nM, Compound I 4 nM-3 μM
# Protocol: as §1, §2
# The experiment setup is identical to the experiment procedure described above for the SKBR-3 model (FIG. 14).
# [7] = Group 2: Compound I 12.5 mg/kg p.o. qd×21
# [8] = Group 3: Compound I 25 mg/kg p.o. qd×21
# [9] = Group 4: Compound I 50 mg/kg p.o. qd×21
# [10] = single agent, read-out: IC50 (cell growth)
# [11] = Group 11: Paclitaxel 25 mg/kg i.v. qod×5
# [12] = Group 5: RAD001 2.5 mg/kg p.o. qd×21
# [13] = Group 6: RAD001 5 mg/kg p.o. qd×21
# [14] = Group 7: RAD001 10 mg/kg p.o. qd×21
structure (smiles),measurement,setting,value
"Cc1nc(NC(=O)N2CCC[C@H]2C(N)=O)sc1-c1ccnc(C(C)(C)C(F)(F)F)c1 [Compound I, (S)-Pyrrolidine-1,2-dicarboxylic acid 2-amide 1-({4-methyl-5-[2-(2,2,2-trifluoro-1,1-dimethyl-ethyl)-pyridin-4-yl]-thiazol-2-yl}-amide)]",Mean BW Nadir,[1]; [7],—
same,Deaths (TR/NTR),[1]; [7],0/0
same,Mean BW Nadir,[1]; [8],—
same,Deaths (TR/NTR),[1]; [8],0/0
same,Mean BW Nadir,"[1]; Group 4: Compound I 50 mg/kg p.o. qd×21, % change from Day 1, nadir Day 8",−8.1%
same,Deaths (TR/NTR),[1]; [9],3/0
same,Mean volume Change,[2]; [7],501 mm^3
same,T/C,[2]; [7],(T/C = 64%)
same,Statistical Signif. vs. G1,"[2]; Group 2: Compound I 12.5 mg/kg, Kruskal-Wallis with Dunn's test",ns (vs. G1)
same,Mean volume Change,[2]; [8],129 mm^3
same,Statistical Signif. vs. G1,"[2]; Group 3: Compound I 25 mg/kg, Kruskal-Wallis with Dunn's test",*** (vs. G1) (*** = P < 0.001)
same,Mean volume Change,[2]; [9],150 mm^3
same,T/C,[2]; [9],(T/C = 19%)
same,Amax (maximum fraction of inhibition),[3],around 0.67
same,IC50,[3]; [10],~330 nM
same,Amax (maximum fraction of inhibition),[4],around 0.16
same,"Amax, the maximum fraction of inhibition",[5],0.40
same,Amax (maximum fraction of inhibition),[6],around 0.53
same,IC50,[6]; [10],~3000 nM
CC(=O)O[C@H]1C(=O)[C@@]2(C)[C@H]([C@H](OC(=O)c3ccccc3)[C@]3(O)C[C@H](OC(=O)[C@H](O)[C@@H](NC(=O)c4ccccc4)c4ccccc4)C(C)=C1C3(C)C)[C@]1(OC(C)=O)CO[C@@H]1C[C@@H]2O [Paclitaxel],Mean BW Nadir,"[1]; Group 11: Paclitaxel 25 mg/kg i.v. qod×5, % change from Day 1, nadir Day 12",−1.9%
same,Deaths (TR/NTR),[1]; [11],0/1
same,Mean volume Change,[2]; [11],898 mm^3
same,T/C,[2]; [11],(TIC = 115%)
same,Statistical Signif. vs. G1,"[2]; Group 11: Paclitaxel 25 mg/kg, Mann-Witney U test",ns (using
"CO[C@H]1C[C@@H]2CC[C@@H](C)[C@@](O)(O2)C(=O)C(=O)N2CCCC[C@H]2C(=O)O[C@H]([C@H](C)C[C@@H]2CC[C@@H](OCCO)[C@H](OC)C2)CC(=O)[C@H](C)/C=C(\C)[C@@H](O)[C@@H](OC)C(=O)[C@H](C)C[C@H](C)/C=C/C=C/C=C/1C [everolimus (RAD001), (1R,9S,12S,15R,16E,18R,19R, 21R,23S,24E,26E,28E,30S,32S,35R)-1,18-dihydroxy-12-{(1R)-2-[(1 S,3R,4R)-4-(2-hydroxyethoxy)-3-methoxycyclohexyl]-1-methylethyl}-19,30-dimethoxy-15,17,21,23,29,35-hexamethyl-11,36-dioxa-4-aza-tricyclo[30.3.1.04,9] hexatriaconta-16,24, 26,28-tetraene-2,3,10,14,20-pentaone]",Mean BW Nadir,[1]; [12],—
same,Deaths (TR/NTR),[1]; [12],0/0
same,Mean BW Nadir,[1]; [13],—
same,Deaths (TR/NTR),[1]; [13],0/0
same,Mean BW Nadir,[1]; [14],—
same,Deaths (TR/NTR),[1]; [14],0/0
same,Mean volume Change,[2]; [12],424 mm^3
same,T/C,[2]; [12],(T/C = 54%)
same,Statistical Signif. vs. G1,"[2]; Group 5: RAD001 2.5 mg/kg, Kruskal-Wallis with Dunn's test",ns (vs. G1)
same,Mean volume Change,[2]; [13],269 mm^3
same,T/C,[2]; [13],(T/C = 43%)
same,Statistical Signif. vs. G1,"[2]; Group 6: RAD001 5 mg/kg, Kruskal-Wallis with Dunn's test",* (vs. G1) (* = P < 0.05)
same,Mean volume Change,[2]; [14],341 mm^3
same,T/C,[2]; [14],(T/C = 43%)
same,Statistical Signif. vs. G1,"[2]; Group 7: RAD001 10 mg/kg, Kruskal-Wallis with Dunn's test",ns (vs. G1)
same,Amax (maximum fraction of inhibition),[3],0.37
same,IC50 (cell growth),[3]; single agent,never achieved an IC50
same,IC50,"[4]; Homo sapiens, ZR-75-1, 72 h, read-out: IC50 (cell proliferation)",~15 nM
same,Amax (maximum fraction of inhibition),[4],0.55
same,"Amax, the maximum fraction of inhibition",[5],0.32
same,IC50 (cell proliferation),"[5]; single agent, 1 nM-27 nM",never achieved an IC50
same,Amax (maximum fraction of inhibition),[6],0.36
same,IC50 (cell growth),[6]; single agent,never achieves an IC50
